Experimental findings from patent US8685924B2, “Preventives/remedies for stress urinary incontinence and method of screening the same” (Takeda Pharmaceutical Company Limited, priority 2004, dated 2014) are described below.

The test system of experiment [1] is urethane-anesthetized female rats. The experiment is described as follows: Leak point pressure by abdominal wall electrostimulation, rats with nerve to iliococcygeus/pubococcygeus muscle transected on one side (Example 2). Conditions: for leak point pressure after drug administration / leak point pressure increase / leak point pressure before drug administration: i.v., mean ± SEM; for leak point pressure before drug administration: baseline. The class given is in vivo, rat. The protocol:
SD female rats (body weight 180-350 g) were anesthetized with urethane (Wako Pure Chemical Industries, Ltd.), and the spinal cord was cut at T8-9 level to eliminate the reflex voiding. In addition, the nerve to the iliococcygeus muscle/pubococcygeus muscle on the one side was transected. During operation, halothane (Takeda Pharmaceutical Company Limited) anesthesia was added when necessary. A catheter (PE-90, Clay Adams) was inserted into the bladder and secured with a ligature, and the incised part of each of the abdominal muscle and skin was closed with sutures. The abdominal skin near the diaphragm was incised at two left and right positions to newly expose the abdominal muscle. An Evans Blue dye (Merck) solution was injected into the bladder, and the bladder volume was adjusted to 0.2-0.3 ml. The bladder catheter was connected to a pressure transducer, and the signals of the transducer were sent to a computer via an amplifier (blood pressure amplification unit AP-641G; NIHON KOHDEN) and an analog-to-digital converter (BIOPAC; MP100), and recorded on a hard disc. The data were analyzed on a computer using software (BIOPAC; AcqKnowledge). The exposed abdominal muscle was electrostimulated using an electrostimulator (SEN-3301; NIHON KODEN) and an isolator (SS-202J; NIHON KODEN), and the presence or absence of incontinence from the urethral orifice was observed. The electrostimulation was applied at a voltage of 3-50 V, duration of 0.05-0.5 milisec, and frequency 50 Hz for 1 sec, thereby gradually increasing the intravesical pressure. The peak intravesical pressure during stimulation of the abdominal wall was measured and, of the trials with observed incontinence, the lowest peak intravesical pressure was defined as the leak point pressure. The leak point pressure was compared before and after the duloxetine and midodrine administration. Duloxetine was dissolved in […] (DMA)/polyethylene glycol 400 (PEG400) (1:1), and intravenously administered at 0.5 ml/kg. Midodrine (hydrochloride, Sigma) was dissolved in saline and intravenously administered at 1 ml/kg.

Experiment [2] shares this test system. The experiment is described as follows: Leak point pressure by intravesical pressure-clamp method (Example 6). The class given is in vivo, rat. Conditions: for leak point pressure after drug administration / leak point pressure before drug administration: i.v., mean ± SEM; for leak point pressure after drug administration: 10 min later; for leak point pressure before drug administration: baseline. Here is the method: SD female rats (body weight 180-350 g) were anesthetized with urethane (Wako Pure Chemical Industries, Ltd.), and the spinal cord was transected at T8-9 level to eliminate the reflex voiding.
Halothane (Takeda Pharmaceutical Company Limited) anesthesia was added when necessary during operation. After laparotomy, the bladder neck was tied with a suture thread and then a catheter (PE-90, Clay Adams) was inserted into the bladder and secured with a ligature. The other end of the bladder catheter was connected to a pressure transducer and saline storage reservoir (60 ml syringe) via a three-way cock.
Changes in the intravesical pressure measured by a transducer were input in a computer via an amplifier (blood pressure amplification unit AP-641G; NIHON KODEN) and an analog-to-digital cinverter (MP-100; biopack) and recorded on a hard disc. The intravesical pressure was raised for 90 sec by setting the saline storage reservoir at a given height, and the presence or absence of saline leakage from the urethral orifice was observed. The intravesical pressure was raised every 2.5 cmH2O and, after 90 sec observation period, the intravesical pressure was once returned to 0 cmH2O, after which the next step was performed. The intravesical pressure at which the saline leakage from the urethral orifice was observed was taken as the leak point pressure. The measurement of the leak point pressure was repeated and the average of the final three measures was taken as the value before the drug administration. The drug was intravenously administered, and the leak point pressure was measured again 10 min later. The drug was dissolved in DMA-PEG400 (1:1), and administered at 0.5 ml/kg.

On to `COc1ccc(OC)c(C(O)CNC(=O)CN)c1` (centres unmarked) [midodrine], for which the “leak point pressure after drug administration” value in experiment [1] (3 mg/kg) is listed as 39.5 ± 7.5 cmH2O; in experiment [1] (10 mg/kg), 45.1 ± 3.8 cmH2O. Besides, the “leak point pressure increase” value came to 3.3 ± 4.0 cmH2O in experiment [1] (3 mg/kg) and 6.1 ± 1.4 cmH2O in experiment [1] (10 mg/kg). Further, the “leak point pressure before drug administration” value in experiment [1] (dose group 3 mg/kg) was found to be 36.2 ± 4.8 cmH2O; in experiment [1] (dose group 10 mg/kg), 38.9 ± 4.5 cmH2O. Besides, the “effect on leak point pressure, comparison before and after administration” value in experiment [1] (intravenously administered) was “significant increase in the leak point pressure”.

As to `C[C@]12CCC(=O)C[C@@H]1CC[C@@H]1[C@@H]2CC[C@]2(C)[C@@H](O)CC[C@@H]12` [DHT, dihydrotestosterone], the “leak point pressure after drug administration” value in experiment [2] (0.3 mg/kg) is 35.5 ± 3.9 cmH2O; in experiment [2] (1 mg/kg), 41.1 ± 3.4 cmH2O; in experiment [2] (3 mg/kg), 36.9 ± 2.1 cmH2O. Further, the “leak point pressure before drug administration” value in experiment [2] (dose group 0.3 mg/kg) amounted to 32.1 ± 3.9 cmH2O; in experiment [2] (dose group 1 mg/kg), 35.7 ± 3.1 cmH2O; in experiment [2] (dose group 3 mg/kg) it was 30.5 ± 2.2 cmH2O. Further, in experiment [2] (intravesical pressure-clamp method), the “effect on leak point pressure” value is “increased the leak point pressure”.
